Marks after values point to notes of the source that are not given here.

Assay [1] deals with androgenetic alopecia (SA) rat model. Nature of the assay: Androgenetic alopecia (SA) rat model induced by testosterone propionate. The class given is in vivo, Wistar rats. Conditions: for Skin hair follicles and sebaceous glands: number of rats graded ++ / Skin hair follicles and sebaceous glands: number of rats graded ± / Skin hair follicles and sebaceous glands: number of rats graded + / Skin hair follicles and sebaceous glands: number of rats graded − / Skin hair follicles and sebaceous glands: number of rats graded +++: 10 rats, after 60 days; for Skin hair follicles and sebaceous glands: number of rats graded ++: few follicles with cystic degeneration, sebaceous glands mild hyperplasia and hypertrophy; for Skin hair follicles and sebaceous glands: number of rats graded ±: no hyperplasia in the dermis, limited lesions of hair follicles and sebaceous glands, no subcutaneous inflammation; for Skin hair follicles and sebaceous glands: number of rats graded +: no obvious hyperplasia in dermis, obviously cystic follicles, no inflammation; for Skin hair follicles and sebaceous glands: number of rats graded −: normal skin dermal tissue cells, subcutaneous hair follicles and sebaceous glands; for Skin hair follicles and sebaceous glands: number of rats graded +++: segmental hyperplasia, degenerated follicles, hyperplasia of sebaceous glands, mild inflammatory hyperplasia; for 15 d hair length / 30 d hair length / 45 d hair length / 60 d hair length: rats; for 15 d hair length: 15 days after administration; for 30 d hair length: 30 days after administration; for 45 d hair length: 45 days after administration; for 60 d hair length: 60 days after administration. As for the experimental part:
SPF grade Wistar rats were selected and randomly divided into compound group 1 (skin applied with 5% R-IMPP solution), compound group 2 (skin applied with 5% PF 06446846 solution), and compound group 3 (skin applied with 5% SBC-115076 solution), compound group 4 (skin applied with 5% SBC-110736 solution), monoclonal antibody group 1 (subcutaneous injection of PCSK9 monoclonal antibody ab84041, 5 mg/kg·d), monoclonal antibody group 2 (subcutaneous injection of Evolocumab, 5 mg/kg·d), monoclonal antibody group 3 (subcutaneous injection of Alirocumab, 5 mg/kg·d), PCSK9 RNAi inhibitor group-1 (skin applied with 5% PCSK9 small interfering RNA-1 solution), PCSK9 RNAi inhibitor group-2 (skin applied with 5% PCSK9 small interfering RNA-2 solution), PCSK9 RNAi inhibitor group-3 (skin applied with 5% PCSK9 small interfering RNA-3 solution), and polypeptide group (subcutaneous injection of Abcam company ab32727, 3 mg/kg·d), positive control group (skin smeared with 5% minoxidil tincture), negative control group (smeared with 75% ethanol), model control group (smeared with 75% ethanol), 10 rats in each group, half male and half female.
Before the experiment, each rat selected an area of 4 cm×5 cm on the back to remove the hair as the observation area. Except for the negative control group, the rats were subcutaneously injected with testosterone propionate injection [[…]] at the back of the neck, once a day for 60 consecutive days to establish the SA model. […] At the same time, the rats in the corresponding drug group were smeared or subcutaneously injected on the skin of the observation area of the rats in the drug group, smeared 1 ml/(per time), twice a day, with an interval of 8 hours, and administered by subcutaneous injection, once a day. The negative control group and the model control group were smeared with excipient (75% ethanol solution), 1 mL one rat per time, twice a day, for 60 consecutive days.
10 hairs were extracted from the observation area on the back of each rat every 15 days after administration, and the hair length was measured with a vernier caliper. After 60 days of administration, the skin of the experimental observation area was taken for routine tissue dehydration, paraffin embedding, HE staining, and light microscopy to observe the histopathological changes of the rat skin hair follicles and sebaceous glands. Semi-quantitative analysis was carried out in each group. The grading standards are as follows: normal skin dermal tissue cells, subcutaneous hair follicles, and sebaceous glands were marked as “one”; no hyperplasia in the dermis, limited lesions of hair follicles and sebaceous glands, and no subcutaneous inflammation, marked as “±”; no obvious hyperplasia found in the dermis, obviously cystic follicles, no obvious hyperplasia found in the sebaceous glands, and no inflammation is recorded as “+”; segmental hyperplasia of skin and dermis was not obvious, a small number of hair follicles had cystic degeneration, and sebaceous glands had mild hyperplasia and hypertrophy. No obvious inflammation under the skin was recorded as “++”; the skin and dermis tissue cells had segmental hyperplasia of different degrees, some follicles degenerated, the size of the hair follicles was uneven, and there were no cells in the periphery. There was hyperplasia of sebaceous glands, and there were few nuclei in the hyperplasia glands. Individual rats had mild inflammatory hyperplasia under the skin, which was marked as “+++”.

A further assay deals with rabbit ear acne model. Nature of the assay: Rabbit ear acne model induced by 2% coal tar. The class given is in vivo, New Zealand rabbits. Particulars: n = 10; for Skin thickness: rabbit ear epidermis; for Hair follicle area / Sebaceous gland diameter: rabbit ear; for Histological grading of acne: number of animals graded − / Histological grading of acne: number of animals graded 1+ / Histological grading of acne: number of animals graded 2+ / Histological grading of acne: number of animals graded 3+: right ear; for Histological grading of acne: number of animals graded −: grade 0: only loose keratinized cells in the infundibulum, without acne; for Histological grading of acne: number of animals graded 1+: grade 1: small amount of dense keratinized material, infundibulum not expanded; for Histological grading of acne: number of animals graded 2+: grade 2: moderately dense keratinized material extending to sebaceous glands, infundibulum expands; for Histological grading of acne: number of animals graded 3+: grade 3: extensive keratinized material, severe expansion of hair follicles. An excerpt: The inner side of the right ear of the rabbits was taken as the observation area, the left ear of all rabbits was used as the self-negative control, and 95% alcohol was applied. The inner side of the right ear of the model group and the treatment group were smeared with 2% coal tar (Alfa Aesar China Company, 2% coal tar solution made with 95% alcohol), and evenly applied to the opening of the ear canal on the inner side of the rabbit ear with a sterile cotton swab in a range of about 2 cm×2 cm, once a day, 0.5 mL each time. Then the previous application was wiped with warm water. […] 18 hours after the last coating, the samples were sacrificed, fixed in 10% formaldehyde, embedded in paraffin, and stained with HE for histopathological analysis.
Histological grading standard of the acne model: […], according to histology. Grade 0 means that there are only loose keratinized cells in the infundibulum, without acne forming the “1”; grade 1: the skin on the surface of the rabbit ear is red, or a small amount of dense keratinized material is seen in the infundibulum of the hair follicle, and the infundibulum is not expanded “+”; grade 2: moderately dense keratinized material is seen in the infundibulum of the hair follicle, and it extends to the sebaceous glands, with the proliferation of sebaceous gland ducts, the infundibulum expands by “2+”; grade 3: extensive keratinized material in the hair follicle. Tight keratin embolism in hair follicles causes severe expansion of hair follicles, obvious hyperplasia of sebaceous duct epithelium, skin bulges and scars, and some sebaceous glands degenerate into “3+”.
Histopathological changes were observed under a microscope, and the thickness of 5 different epidermises on a slice was measured with the Biomias99 image analysis system, and the average value was calculated; the area of two hair follicles with the same position and the most complete structure and the diameter of four sebaceous glands were detected, and the average value of each was calculated, and then the data of the left and right external auditory canals of each group were subtracted to obtain the difference in the thickness of the epidermis, the difference in hair follicle area and the diameter of the sebaceous gland in the left and right ears of each rabbit.

For the molecule `COc1ccc(CCC(=O)N(c2nccc3ccccc23)[C@@H]2CCCNC2)cc1` [Compound group 1, R-IMPP], in assay [1], the “Skin hair follicles and sebaceous glands: number of rats graded ++” value is on record as 3; the “Skin hair follicles and sebaceous glands: number of rats graded ±” value is 5; the “Skin hair follicles and sebaceous glands: number of rats graded +” value was found to be 2; the “Skin hair follicles and sebaceous glands: number of rats graded −” value was 0. In assay [1], the “Skin hair follicles and sebaceous glands: number of rats graded +++” value is recorded as 0; the “15 d hair length” value is 8.9* mm; the “30 d hair length” value is listed as 9.9* mm; the “45 d hair length” value is listed as 14.7* mm. Further, the “60 d hair length” value in assay [1] is recorded as 18.2* mm. Moreover, in the assay on rabbit ear acne model, the Skin thickness amounted to 0.2433 ± 0.0196 mm, the Hair follicle area is recorded as 0.2726 ± 0.0842* mm^2, the Sebaceous gland diameter was determined as 0.0512 ± 0.0327 mm and the “Histological grading of acne: number of animals graded −” value turned out to be 6. Besides, in the assay with rabbit ear acne model, the “Histological grading of acne: number of animals graded 1+” value turned out to be 3, the “Histological grading of acne: number of animals graded 2+” value amounted to 1 and the “Histological grading of acne: number of animals graded 3+” value came out at 0.

Consider `O=C(c1ccc(-n2nnc3cccnc32)cc1)N(c1ncccc1Cl)[C@@H]1CCCNC1` [Compound group 2, PF 06446846], for which, in assay [1], the “Skin hair follicles and sebaceous glands: number of rats graded ++” value was 1; the “Skin hair follicles and sebaceous glands: number of rats graded ±” value is 5; the “Skin hair follicles and sebaceous glands: number of rats graded +” value is 2; the “Skin hair follicles and sebaceous glands: number of rats graded −” value was 2. Moreover, in assay [1], the “Skin hair follicles and sebaceous glands: number of rats graded +++” value is on record as 0; the “15 d hair length” value is 9.2* mm; the “30 d hair length” value is given as 10.1* mm; the “45 d hair length” value is on record as 15.2* mm. Further, the “60 d hair length” value in assay [1] is 18.9* mm. In the assay on rabbit ear acne model, the Skin thickness came out at 0.1968 ± 0.0121 mm, the Hair follicle area is recorded as 0.2353 ± 0.0812* mm^2, the Sebaceous gland diameter is reported as 0.0467 ± 0.0313 mm and the “Histological grading of acne: number of animals graded −” value amounted to 7. In the assay with rabbit ear acne model, the “Histological grading of acne: number of animals graded 1+” value is reported as 2, the “Histological grading of acne: number of animals graded 2+” value came to 1 and the “Histological grading of acne: number of animals graded 3+” value was found to be 0.

As to `Cc1cc(C(=O)C2=C(O)C(=O)N(CCCN3CCOCC3)C2c2ccncc2)ccc1OCc1ccccc1` (stereo not drawn) [Compound group 3, SBC-115076], in assay [1], the “Skin hair follicles and sebaceous glands: number of rats graded ++” value worked out at 3; the “Skin hair follicles and sebaceous glands: number of rats graded ±” value was determined as 4; the “Skin hair follicles and sebaceous glands: number of rats graded +” value was found to be 2; the “Skin hair follicles and sebaceous glands: number of rats graded −” value is 1. Also, in assay [1], the “Skin hair follicles and sebaceous glands: number of rats graded +++” value was 0; the “15 d hair length” value was 8.3* mm; the “30 d hair length” value is listed as 8.8* mm; the “45 d hair length” value is 14.5* mm. For the same molecule, the “60 d hair length” value in assay [1] is 17.6* mm. Also, in the assay with rabbit ear acne model, the Skin thickness is listed as 0.2245 ± 0.0185 mm, the Hair follicle area is 0.2836 ± 0.0851* mm^2, the Sebaceous gland diameter is 0.0542 ± 0.0346 mm and the “Histological grading of acne: number of animals graded −” value was found to be 5. Besides, in the assay on rabbit ear acne model, the “Histological grading of acne: number of animals graded 1+” value is given as 3, the “Histological grading of acne: number of animals graded 2+” value was found to be 2 and the “Histological grading of acne: number of animals graded 3+” value is on record as 0.

With `CC(=O)Nc1ccc(C(=O)N2CCN(c3ccc(C)cc3)CC2c2ccccc2)cc1` (stereo not drawn) [Compound group 4, SBC-110736], in assay [1], the “Skin hair follicles and sebaceous glands: number of rats graded ++” value was 2; the “Skin hair follicles and sebaceous glands: number of rats graded ±” value is reported as 4; the “Skin hair follicles and sebaceous glands: number of rats graded +” value was found to be 3; the “Skin hair follicles and sebaceous glands: number of rats graded −” value is given as 1. Besides, in assay [1], the “Skin hair follicles and sebaceous glands: number of rats graded +++” value turned out to be 0; the “15 d hair length” value is 8.1* mm; the “30 d hair length” value is 8.6* mm; the “45 d hair length” value is reported as 14.3* mm. Also, the “60 d hair length” value in assay [1] is recorded as 17.3* mm. In the assay with rabbit ear acne model, the Skin thickness was found to be 0.2276 ± 0.0193 mm, the Hair follicle area is on record as 0.2853 ± 0.0879* mm^2, the Sebaceous gland diameter was found to be 0.0561 ± 0.0362 mm and the “Histological grading of acne: number of animals graded −” value turned out to be 5. Moreover, in the assay on rabbit ear acne model, the “Histological grading of acne: number of animals graded 1+” value turned out to be 2, the “Histological grading of acne: number of animals graded 2+” value came out at 3 and the “Histological grading of acne: number of animals graded 3+” value stood at 0.

As for ALN-PCS [RNA interference group 3], in assay [1], the “Skin hair follicles and sebaceous glands: number of rats graded ++” value amounted to 2; the “Skin hair follicles and sebaceous glands: number of rats graded ±” value stood at 3; the “Skin hair follicles and sebaceous glands: number of rats graded +” value amounted to 4; the “Skin hair follicles and sebaceous glands: number of rats graded −” value is given as 1. Further, in assay [1], the “Skin hair follicles and sebaceous glands: number of rats graded +++” value is on record as 0; the “15 d hair length” value is recorded as 8.2* mm; the “30 d hair length” value is 8.9* mm; the “45 d hair length” value is listed as 14.2* mm. In addition, the “60 d hair length” value in assay [1] was 16.7* mm. In the assay on rabbit ear acne model, the Skin thickness is given as 0.1987 ± 0.0185 mm, the Hair follicle area is recorded as 0.1921 ± 0.0933* mm^2, the Sebaceous gland diameter is 0.0615 ± 0.0476 mm and the “Histological grading of acne: number of animals graded −” value is 5. Moreover, in the assay with rabbit ear acne model, the “Histological grading of acne: number of animals graded 1+” value was 4, the “Histological grading of acne: number of animals graded 2+” value came to 1 and the “Histological grading of acne: number of animals graded 3+” value turned out to be 0.

As for “Alirocumab [Monoclonal antibody group 3]”, in assay [1], the “Skin hair follicles and sebaceous glands: number of rats graded ++” value came out at 1; the “Skin hair follicles and sebaceous glands: number of rats graded ±” value was found to be 4; the “Skin hair follicles and sebaceous glands: number of rats graded +” value was 2; the “Skin hair follicles and sebaceous glands: number of rats graded −” value was 3. In assay [1], the “Skin hair follicles and sebaceous glands: number of rats graded +++” value was determined as 0; the “15 d hair length” value was 9.5* mm; the “30 d hair length” value is 10.5* mm; the “45 d hair length” value was 15.5* mm. Besides, the “60 d hair length” value in assay [1] is given as 19.2* mm. For the same molecule, in the assay with rabbit ear acne model, the Skin thickness amounted to 0.1547 ± 0.0149 mm, the Hair follicle area is given as 0.1526 ± 0.0723* mm^2, the Sebaceous gland diameter came to 0.0435 ± 0.0285 mm and the “Histological grading of acne: number of animals graded −” value stood at 9. Further, in the assay on rabbit ear acne model, the “Histological grading of acne: number of animals graded 1+” value amounted to 1, the “Histological grading of acne: number of animals graded 2+” value was 0 and the “Histological grading of acne: number of animals graded 3+” value is on record as 0.

Source of the values: patent US20230346773A1, “USE OF PCSK9 INHIBITOR IN PREPARATION OF PRODUCT FOR TREATING MULTIPLE DISEASES” (priority 2020, published 2023).
